Blank lines part the entries; values can stand above or below the compound they belong to. *1 amine or outer side, *2 acyl side, *3 side chain or, on linkers, in order; H or OH if unused. Where a SMILES comes first, the peptide text is derived from it. Bridges are numbered along the chain shown (N, C = ends). Roman numbers before positions name the chains, in order. Where no end group is shown, it is not given here. [ ]: non-standard residue; d: D form. Actinocin(9to1) = Cc1c2oc3c(C)ccc(C(=O)[*:1])c3nc-2c(C(=O)[*:2])c(N)c1=O; NMeV = CN[C@H](C(=O)O)C(C)C; Sar = CNCC(=O)O
What was measured:
[1] = tested on: nuclear export; conditions: in vivo nuclear export assay; cited from earlier work
From the text: Two sequence motifs in the core domain of NPM (residues 42–61 and 94–102) (Fig 1) have been investigated as candidate NESs. In addition, we have detected a further putative NES in the C-terminal region (see below). However, it is still unclear to what extent any of these sequences represents NPM physiological NESs. […] It is therefore not surprising that NPM deregulation is associated to cancer. NPM is overexpressed in several solid tumors (such as gastric, colon, ovarian, prostate cancer). In addition, small insertions and translocations affecting NPM1 gene, encoding NPM, are characteristic of certain hematological disorders. In fact, NPM1 is the most frequently mutated gene in adult acute myeloid leukemia (AML). […] The higher affinity of mutE(NES) for CRM1^HA is consistent with its stronger export activity previously observed using in vivo nuclear export assays. […] Thus, the ranking of in vitro CRM1^HA affinity (PKI(NES) (KD 579 n ...

[2] = tested on: Myc-NPM in HEK293T cells; experiment: Localization of Myc-NPM in HEK293T cells; assay type: cell-based, human
Procedure: (§1) Cell culture, transfection, treatment and imaging
(§2) Human embryonic kidney 293T (HEK293T) and HeLa cells (ECACC) were grown in Dulbecco’s modified Eagle’s medium, supplemented with 10% fetal bovine serum, 100 units/ml penicillin and 100 μg/ml streptomycin (all from Invitrogen). The cells were seeded onto sterile glass coverslips in 12-well trays 24 h before transfection. Transfections were carried out with XtremeGENE 9 (Roche) following the manufacturer’s protocol. Treatment of cells with the different drugs was done at the indicated final concentrations and time periods: Actinomycin D (ActD, Sigma) at 5 μg / mL for 3 h, and hydroxyurea (HU, Sigma) at 4 mM for 24 h.
Cells were fixed, either 20 or 42 h after transfection, with 3.7% formaldehyde in PBS for 30 min, then treated with 0.2% Triton X-100 in PBS for 10 min, for membrane permeabilization and incubated for 1 h in blocking solution (3% BSA in PBS). In YFP-CRM1 overexpression experiments, endogenous NPM was detected with anti-B23 (Santa Cruz Biotechnology FC82291, dilution 1:800), Myc3-NPM with anti-Myc (Cell Signalling 2276, dilution 1:2000) and Flag-SurvNLS with anti-Flag (Sigma F1704, dilution 1:300). Primary antibodies were diluted in blocking solution. In all cases, the secondary antibody was Alexa Fluor 594 anti-mouse (Invitrogen A11005, dilution 1:400). […] Slides were examined using a Zeiss Axioskop fluorescence microscope. […]

[3] = tested on: endogenous NPM in HEK293T cells; experiment: Localization of endogenous NPM in HEK293T cells; assay type: cell-based, human
Procedure: as §1, §2
Cells were fixed, either 20 or 42 h after transfection, with 3.7% formaldehyde in PBS for 30 min, then treated with 0.2% Triton X-100 in PBS for 10 min, for membrane permeabilization and incubated for 1 h in blocking solution (3% BSA in PBS). In YFP-CRM1 overexpression experiments, endogenous NPM was detected with anti-B23 (Santa Cruz Biotechnology FC82291, dilution 1:800), Myc3-NPM with anti-Myc (Cell Signalling 2276, dilution 1:2000) and Flag-SurvNLS with anti-Flag (Sigma F1704, dilution 1:300). Primary antibodies were diluted in blocking solution. In all cases, the secondary antibody was Alexa Fluor 594 anti-mouse (Invitrogen A11005, dilution 1:400). Washing between the different steps were carried out with PBS. […] Slides were examined using a Zeiss Axioskop fluorescence microscope. For quantification, at least 200 cells were “blind counted” and classified as having nuclear (or nucleolar), nuclear/cytoplasmic or cytoplasmic localization of NPM (or the Flag-SurvNLS control). […]
Fig 2 Localization of endogenous and ectopically expressed NPM and effect of treatment with actinomycin D (ActD) and CRM1 overexpression in HEK293T cells. […] Green denotes YFP (Y) or YFP-CRM1 (YC) fluorescence; red, immunostaining of endogenous NPM; and blue, DAPI fluorescence. […] More than 200 cells were “blind” counted. […] (D) Quantification of cytoplasmic (C) or nuclear and cytoplasmic (N/C) localization of overexpressed Flag-SurvNLS and Myc-NPM. […]

[4] = molecular target: T1, CRM1^HA (Mus musculus, UniProt Q6P5F9, L431A/V430A/V432A); experiment: Isothermal titration calorimetry, CRM1^HA / NES; assay type: binding; conditions: for binding response: titrated onto CRM1^HA, result in words
T1 construct: His-ZZ (cleaved yes); made in house; host or cells: Escherichia coli BL21-CodonPlus (DE3)
T1 sequence (Q6P5F9 1-1062 V430A/L431A/V432A limits assumed): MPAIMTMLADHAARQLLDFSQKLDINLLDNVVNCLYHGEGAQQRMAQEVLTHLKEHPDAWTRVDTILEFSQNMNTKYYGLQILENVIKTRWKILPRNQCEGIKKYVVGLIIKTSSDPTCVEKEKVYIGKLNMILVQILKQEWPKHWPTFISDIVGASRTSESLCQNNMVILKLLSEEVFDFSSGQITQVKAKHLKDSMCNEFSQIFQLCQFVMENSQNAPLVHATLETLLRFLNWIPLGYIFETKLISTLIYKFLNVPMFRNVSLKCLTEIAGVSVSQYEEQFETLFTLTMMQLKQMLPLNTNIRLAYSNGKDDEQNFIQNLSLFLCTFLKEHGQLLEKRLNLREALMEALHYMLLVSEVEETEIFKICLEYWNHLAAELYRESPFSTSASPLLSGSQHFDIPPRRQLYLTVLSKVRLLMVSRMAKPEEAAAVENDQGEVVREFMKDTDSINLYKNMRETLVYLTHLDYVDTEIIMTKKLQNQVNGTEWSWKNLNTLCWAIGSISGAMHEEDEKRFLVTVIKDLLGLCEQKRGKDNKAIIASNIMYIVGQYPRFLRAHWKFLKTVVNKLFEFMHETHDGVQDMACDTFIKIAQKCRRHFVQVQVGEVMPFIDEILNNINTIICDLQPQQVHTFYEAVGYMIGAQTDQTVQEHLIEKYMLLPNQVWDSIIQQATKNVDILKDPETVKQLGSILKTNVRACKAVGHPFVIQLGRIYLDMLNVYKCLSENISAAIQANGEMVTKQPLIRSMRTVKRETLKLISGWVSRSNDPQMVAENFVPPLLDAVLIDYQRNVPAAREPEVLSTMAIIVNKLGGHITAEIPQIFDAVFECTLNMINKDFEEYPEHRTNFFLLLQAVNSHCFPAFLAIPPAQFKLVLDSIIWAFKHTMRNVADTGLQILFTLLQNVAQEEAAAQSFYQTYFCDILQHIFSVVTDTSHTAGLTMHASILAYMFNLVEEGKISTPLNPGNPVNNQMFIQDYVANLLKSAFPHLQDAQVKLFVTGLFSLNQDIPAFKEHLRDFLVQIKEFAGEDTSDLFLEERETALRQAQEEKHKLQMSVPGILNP
Procedure: Isothermal titration calorimetry (ITC)
ITC measurements were carried out using a VIP-ITC MicroCalorimeter (MicroCal, Inc., Northampton, MA). TFP and YFP constructs, as well as CRM1^HA, were dialyzed in a buffer containing 20 mM HEPES, pH 7.4, 50 mM NaCl, 1 mM TCEP, 1 mM MgCl2, and degassed prior to the experiment. Untagged peptides (AS: QDLCLAVEEVSLRK, AL: EAIQDLCLAVEEVSLRK, ES: QDLWQSLAQVSLRK and EL: EAIQDLWQSLAQVSLRK), N-acetylated and 95% pure, were purchased from Proteogenix (Schiltigheim, France) and resuspended in the ITC buffer. Measurements were performed at 20°C. TFP-NES, YFP-NES or NES peptides at 35–180 μM were titrated onto CRM1^HA at 2–14 μM. Injections of 6 μL were performed at 320 seconds interval (the first injection always was of 1 μL and is not considered in data analysis). To determine the thermodynamic parameters of NPM / importin interaction, importin α, importin Δα or importin α/β at 45–60 μM were titrated onto NPM (1–1.2 μM pentamer) in 50 mM Tris/HCl, pH 7.5, 100 mM NaCl, 2 mM TCEP, and 10% glycerol. […] “Reverse” titrations, where 20–30 μM NPM was titrated onto 7–10 μM of the different importins were also performed and yielded similar results.
The reaction heat of each injection is related to the calorimetric enthalpy of binding, ΔH^0. The binding isotherms, ΔH^0 vs. molar ratio, were analyzed with an independent binding sites model using MicroCal Origin software. The fit of the binding curve yields the binding constant KA (KD = 1/KA) and the enthalpy ΔH^0 of the binding reaction. The Gibbs free energy of binding ΔG^0 and the entropy ΔS^0 are determined from the basic thermodynamic expressions: ΔG^0 = -RTlnKA = ΔH^0−TΔS^0, where R and T are the gas constant and the absolute temperature, respectively.
Fig 5 Analysis of CRM1^HA/TFP-NES interaction by ITC. Isothermal titration of CRM1^HA with TFP-mutE(NES). […] The titration of negative control TFP-Cter (180 μM) onto CRM1^HA (14 μM) (circles) is also shown for comparison.

[5] = molecular target: T1, CRM1^HA; experiment: Fluorescence anisotropy binding assay, CRM1^HA; conditions: 0–60 μM CRM1^HA, 25°C
Procedure: Fluorescence anisotropy binding assays
To estimate CRM1 binding affinities for NES motifs we monitored binding with a fluorescence-polarization assay based on previously described approaches. The increase in fluorescence anisotropy of TFP/YFP when the TFP/YFP-NES construct (50 nM) binds to 0–60 μM CRM1 (either CRM^HA or wild type) was recorded at 25°C with a 8100 SLM-Aminco spectrofluorometer in buffer 20 mM Tris/HCl, pH 7.4, 50 mM NaCl, 5 mM DTT, 2 mM MgCl2. Excitation and emission wavelengths were 463, 500 nm for TFP and 463, 533 nm for YFP, and slits width 4 and 8 nm, respectively.
Fig 4 Binding of CRM1 to TFP-NES constructs. (A) Scheme of the engineered TFP constructs, showing the sequence of the NES motifs. Φ residues are highlighted in red. (B) Titration of CRM1 onto the different TFP constructs (50 nM), at 25°C, in buffer 20 mM Tris/HCl, pH 7.4, 50 mM NaCl, 5 mM DTT, 2 mM MgCl2: Left panel: Binding of CRM1^HA (solid symbols) or wild type CRM1 (empty symbols) to TFP-PKI(NES). Right panel: Binding of CRM1^HA to TFP-mutE(NES) (triangles) and TFP-mutA(NES) (squares). Fraction bound was calculated from the relative increase in fluorescence anisotropy of TFP (λexc 463 nm, λem 500 nm). Error bars correspond to at least three measurements per CRM1 concentration.
We next used the TFP-(NES) constructs to monitor CRM1^HA binding to each motif, using the change in fluorescence anisotropy upon complex formation as a readout (Fig 4B), as previously described. […] The different nature of the fluorescent tag, and/or the linker between the fluorescent protein and the NES (2 residues longer in the YFP-PKI construct) could explain the discrepancy. […] To isolate the CRM1 / NES interaction under study from the influence of the tag protein, we have also conducted binding assays with peptides corresponding to the NES motifs (see below).

[6] = ITC, NES ligand (35–180 μM) titrated onto CRM1^HA (2–14 μM), 20°C, 20 mM HEPES pH 7.4, 50 mM NaCl, 1 mM TCEP, 1 mM MgCl2, independent binding sites model, read-out: KD
[7] = TFP/YFP-NES construct 50 nM, 20 mM Tris/HCl pH 7.4, 50 mM NaCl, 5 mM DTT, 2 mM MgCl2, at least three measurements per CRM1 concentration, read-out: apparent KD (C50)

Compound: 94–102: candidate NES motif in the core domain of NPM (ITPPVVLRL; UniProt P06748 94-102, looked up, fragment)
NES export activity in cells [1]: border-line activity

Compound: Cc1c2oc3c(C)ccc(C(=O)N[C@@H]4C(=O)N[C@H](C(C)C)C(=O)N5CCC[C@H]5C(=O)N(C)CC(=O)N(C)[C@@H](C(C)C)C(=O)O[C@@H]4C)c3nc-2c(C(=O)N[C@@H]2C(=O)N[C@H](C(C)C)C(=O)N3CCC[C@H]3C(=O)N(C)CC(=O)N(C)[C@@H](C(C)C)C(=O)O[C@@H]2C)c(N)c1=O [ActD, actinomycin D] (I: T[dV]P[Sar][NMeV] / II: T[dV]P[Sar][NMeV]; ester I:1-I:C, II:1-II:C; linker I:N-II:N via Actinocin(9to1))
cells with nuclear/cytoplasmic localization of Myc-NPM ([2]; YFP-CRM1 co-expression and ActD (5 μg/mL, 3 h), >200 cells counted): 33%
cytoplasmic localization of endogenous NPM ([3]; HEK293T expressing YFP-CRM1, ActD 5 μg/mL 3 h where ActD): a further increase was observed
nuclear/cytoplasmic localization of endogenous NPM ([3]; YFP-transfected HEK293T, ActD 5 μg/mL 3 h, no CRM1 overexpression): does not affect, however, the amount of cells displaying nuclear/cytoplasmic localization of NPM

Compound: NC(=O)NO [HU, hydroxyurea]
cells with cytoplasmic relocation of Myc-NPM, YFP-CRM1 co-expression with HU ([2]; YFP-CRM1 co-expression, hydroxyurea 4 mM 24 h (increase from 20%)): 50%
effect of HU on endogenous NPM localization ([3]; hydroxyurea 4 mM 24 h (data not shown)): could not be observed on endogenous NPM

Compound: Ac-EAIQDLCLAVEEVSLRK [peptide AL]
Kd [4]: 57 ± 10 nM

Compound: DLWQSLAQVSLRK [TFP-mutE(NES), NES of NPM mutant E as C-terminal fusion to teal fluorescent protein]
Kd ([5]; TFP-NES 50 nM, pH 7.4, rounded, read-out: apparent KD): 2200 nM
Kd [5, 7]: 2160 ± 556 nM
Kd [4, 6]: 1040 ± 41 nM
ΔH ([4]; ITC, NES ligand titrated onto CRM1^HA, 20°C, 20 mM HEPES pH 7.4): -15.4 ± 3.1 kcal/mol
-TΔS ([4]; ITC, NES ligand titrated onto CRM1^HA, 20°C, 20 mM HEPES pH 7.4, from ΔG = ΔH − TΔS): 7.4 ± 3.1 kcal/mol
n (binding stoichiometry) ([4]; ITC, NES ligand titrated onto CRM1^HA, 20°C, 20 mM HEPES pH 7.4, low n of peptides might result from limited solubility): 0.80 ± 0.19
ΔG ([4]; ITC, NES ligand titrated onto CRM1^HA, 20°C, 20 mM HEPES pH 7.4, ΔG = -RTlnKA): -8.0 ± 0.0 kcal/mol
Kd ([4]; ITC, TFP-NES titrated onto CRM1^HA, 20°C, 20 mM HEPES pH 7.4, rounded, read-out: KD): 1000 nM

Compound: DLWQWRKSL [TFP-Cter, negative control construct containing the last 9 C-terminal residues of wild type NPM]
binding response ([4]; ITC, 20°C, 20 mM HEPES pH 7.4): small exothermic peaks (Fig 5), which may reflect a non-specific binding

Compound: residues 42–49: candidate NES motif in the core domain of NPM (LSLRTVSL; UniProt P06748 42-49, looked up, fragment)
NES export activity in cells [1]: border-line activity

Further lines, with some results ahead:

Kd [4, 6]: 31 ± 1 nM
Compound: Ac-EAIQDLWQSLAQVSLRK [peptide EL]

Kd [4, 6]: 76 ± 1 nM
Compound: Ac-QDLWQSLAQVSLRK [peptide ES]

relative affinity for CRM1^HA, mutant E NES vs mutant A NES ([4]; anisotropy, ITC with TFP constructs and ITC with untagged peptides): approximately double that of mutant A
Compound: DLWQSLAQVSLRK [mutE(NES), acquired NES motif of AML-associated NPM mutant E]
NES export activity in cells [1]: much higher than that of mutant A NES, and comparable to the export activity of PKI(NES)

Kd [5, 7]: 579 nM
Compound: LALKLAGLDI [PKI(NES), in b48 the value is that of TFP-PKI(NES), reference compound]

binding response ([4]; ITC, 20°C, 20 mM HEPES pH 7.4): showed no binding in our conditions
Compound: QDLCLAVEEVSLRK [peptide AS, short version of the NES motif of mutant A]
